Earlier results on three compounds are cited in patent US20100166856A1, “PHARMACEUTICAL COMPOSITION IN THE FORM OF COATED MICROSPHERES FOR THE MODIFIED RELEASE OF A MUSCLE RELAXANT AND AN NSAID” (LABORATORIOS SENOSIAIN S.A. DE C.V., priority 2006, published 2010).

Data set [1] has as its system metabolism of tizanidine. The settings on record: combination of tizanidine with rofecoxib.
The conditions of data set [2]: after administration.
The conditions of data set [3]: 22.5 mg of meloxicam.

Turning to `Clc1ccc2nsnc2c1NC1=NCCN1` [tizanidine], the half-life time entry (after oral administration) is given as “approximately 2.5 hours”. For the setting “in vivo”, the excretion in feces result is given as “about 20%” and the excretion in urine is on record as 60%.

As for `CS(=O)(=O)c1ccc(C2=C(c3ccccc3)C(=O)OC2)cc1` [rofecoxib], the “pharmacokinetic interaction with tizanidine” value in data set [1] is reported as “inhibits the metabolism of tizanidine”.

On to `Cc1cnc(NC(=O)C2=C(O)c3ccccc3S(=O)(=O)N2C)s1` [meloxicam], for which, in data set [2], the “time at which maximum plasma concentration is reached” value was 4 to 5 h. For the same compound, the “time of second concentration peak” value in data set [2] (indicates gastrointestinal re-circulation) was 12 to 14 h. Moreover, the “effect of higher dose” value in data set [3] is reported as “only an increase in gastrointestinal adverse effect was observed”.
